Key:
[1] = system: Escherichia coli; test: Fluorescence imaging of co-incubated bacteria under laser confocal fluorescence microscope; format: cell-based
Experimental: (§1) A preparation method for a nucleic acid functionalized metal nanoprobe includes: • (1) deoxyribonucleic acid (DNA) molecules are fully mixed with a diluted nucleic acid intercalator SYBR Green I (2.5×), and a mixture is placed at a room temperature to react in dark for 30 min. • (2) a reaction product of step (1) is fully mixed with 100 μmol/L chloroauric acid solution to obtain a mixed solution A. • (3) the mixed solution A and Escherichia coli are continuously co-incubated in a constant-temperature shaking table for 1 h-12 h to obtain a mixed solution B. A normal control group (a chloroauric acid solution having the same concentration as the experimental group is merely added) and a blank group (an Escherichia coli suspension without any treatment) are set. After incubation, a small amount of the above mixed solution are dripped into the slide glass, and mounting is performed with a cover glass. • (4) A slide glass is placed under a laser confocal fluorescence microscope to be activated. Further, the above mixture is irradiated with 808 nm laser for 5-10 min, is cultured on a solid medium, and counted.

[2] = system: Escherichia coli; test: Germicidal effect after 808 nm laser irradiation, culture on solid medium and counting; format: cell-based
Experimental: as §1

For [Au+3].[Cl-].[Cl-].[Cl-].[Cl-].[H+] [chloroauric acid], the “fluorescence / signal intensity” value ([1]; co-incubated with Escherichia coli 1 h-12 h, metal cation 100 μmol/L) was “weak fluorescence”, the “concentration at which signal intensity reaches maximum / does not increase any more” value ([1]; method of Example 1, 0, 10, 50, 100, 200, 300 μmol/L tested (FIG. 2)) was 100 µmol/L and the “signal intensity with increase of concentration” value ([1]; method of Example 1, 0-300 μmol/L (FIG. 2)) was “enhanced”. For the same compound, the “germicidal (antibacterial) effect” value ([2]; 808 nm laser 5-10 min, cultured on solid medium and counted, metal cation 100 μmol/L) was “most of Escherichia coli is killed” and the “sterilization effect with increase of concentration” value ([2]; method of Example 1, 0-300 μmol/L (FIG. 3)) was “gradually enhanced”.

From patent US20240240078A1, “NUCLEIC ACID FUNCTIONALIZED METAL NANOPROBE AND PREPARATION METHOD THEREFOR” (SOUTHEAST UNIVERSITY, priority 2021, published 2024)
